Assay results as given in patent US10927117B2 (BEIGENE SWITZERLAND GMBH, priority 2016, dated 2021).
pIC50: −log10 of the molar value. Entries after “also recorded” stand apart in the source; their conditions may differ.

Columns and labels:
[1] = tested on: advanced B cell malignancies; assay: Phase 1 trial in patients with advanced B cell malignancies (cutoff Oct. 19, 2015); format: in vivo, human
Excerpt: A total of 39 patients, including all 25 patients from the initial dose-escalation component and 14 patients from the ongoing dose-expansion component were enrolled.
As of Oct. 19, 2015, the cutoff date for data analysis, 29 objective responses have been observed, including 3 complete responses (CRs), 1 very good partial response (VGPR), and 25 partial responses (PRs). 31 of the 39 patients remain on study treatment, free of progression, including all patients to date who have achieved an objective response.

[2] = tested on: Waldenstrom's Macroglobulinemia (WM); assay: Phase 1 trial in patients with Waldenstrom's Macroglobulinemia (WM); format: in vivo, human
Procedure: The dose-escalation component of the trail tested total daily doses ranging from 40 mg to 320 mg, and the ongoing dose-expansion phase is testing doses of 160 mg twice a day (BID) or 320 mg once a day (QD). As of Mar. 31, 2017, 48 patients with WM were enrolled in the study. Responses were determined according to the modified Sixth International Workshop on WM (IWWM) criteria.

[3] = tested on: JEKO-1 cells (MCL cell line); assay: Tumor cell proliferation, CellTiter-Glo, JEKO-1; format: cell-based; conditions: Homo sapiens, 144 h, JEKO-1 cell line, 6-day exposure, read-out: Potency IC50
Procedure: 3 MCL cell lines (Rec-1, Mino and JEKO-1) and an ABC type diffuse large B-cell lymphoma cell line (TMD8) were used in this study. Cell lines were maintained in RPMI-1640 supplemented with 10% fetal bovine serum/FBS (Thermo Scientific); 100 units/ml penicillin (Gibco) and 0.1 mg/ml streptomycin (Gibco) and kept at 37° C. in a humidified atmosphere of 5% CO2 in air. Cell lines were reinstated from frozen stocks that were laid down within 30 passages from the original cells purchased.
The growth-inhibitory activity of compounds in Rec-1, Mino, JEKO-1 and TMD-8 cells was determined using CellTiter-Glo luminescent cell viability assay (Promega). The number of cells seeded per well of a 96-well plate was optimized for each cell line to ensure logarithmic growth over 6 days treatment period. Cells were treated in triplicate with a 10-point dilution series. […] Mixture was mixed on an orbital shaker for 2 minutes to allow cell lysis, followed by 10 minutes incubation at room temperature to allow development and stabilization of luminescent signal, which corresponded to quantity of ATP and thus the quantity of metabolically active cells. Luminescent signal was measured using PHERAstar FS reader (BMG Labtech). IC50 values for cell viability were determined with GraphPad Prism software and were the mean of 3 independent assays.

[4] = Physical and long term stability test; format: physicochemical
[5] = Burkitt's-like Lymphoma patients
[6] = Burkitt's-like Lymphoma patients, number of patients/total
[7] = Chronic Lymphocytic Leukemia patients
[8] = Chronic Lymphocytic Leukemia patients, number of patients/total
[9] = DLBCL patients, number of patients/total
[10] = Hairy Cell Leukemia patients, number of patients/total
[11] = Indolent NHL patients, number of patients/total
[12] = Mantle Cell Lymphoma patients, number of patients/total
[13] = Waldenström's Macroglobulinemia patients
[14] = Waldenström's Macroglobulinemia patients, number of patients/total
[15] = 25° C./60% RH for up to 24 months
[16] = 40° C./75% RH for up to 6 months

SMILES: C=CC(=O)N1CCC([C@@H]2CCNc3c(C(N)=O)c(-c4ccc(Oc5ccccc5)cc4)nn32)CC1 [Compound 1, (S)-7-(1-acryloylpiperidin-4-yl)-2-(4-phenoxyphenyl)-4,5,6,7-tetra-hydropyrazolo[1,5-a]pyrimidine-3-carboxamide]
- patients who discontinued ([1]; 6 disease progression, 2 adverse events related to underlying malignancy): 8
- exacerbation or new event of atrial fibrillation/flutter (AF) ([1]; 6 patients with baseline history of AF): no exacerbation or new event of AF
- complete responses (CRs) ([1]; 39 patients enrolled): 3
- partial responses (PRs) ([1]; 39 patients enrolled): 25
- very good partial response (VGPR) ([1]; 39 patients enrolled): 1
- objective responses ([1]; 39 patients enrolled, cutoff Oct. 19, 2015): 29
- Best Response CR [1, 5]: (0%)
- Best Response PD [1, 5]: (100%)
- Best Response PR [1, 5]: (0%)
- Best Response SD [1, 5]: (0%)
- ORR (CR + PR) [1, 5]: (0%)
- Best Response CR [1, 6]: 0/1
- Best Response PD [1, 6]: 1/1
- Best Response PR [1, 6]: 0/1
- Best Response SD [1, 6]: 0/1
- ORR (CR + PR) [1, 6]: 0/1
- Best Response PD [1, 7]: (0%)
- Best Response SD [1, 7]: (7%)
- ORR (CR + PR) [1, 7]: (93%)
- Best Response CR ([1]; Chronic Lymphocytic Leukemia patients, cutoff Oct. 19, 2015): (0%)
- Best Response PR ([1]; Chronic Lymphocytic Leukemia patients, includes five patients with lymphocytosis at latest assessment): (93%)
- Best Response PD ([1]; Chronic Lymphocytic Leukemia patients, number of patients): 0
- Best Response SD [1, 8]: 1/14
- ORR (CR + PR) [1, 8]: 13/14
- Best Response CR ([1]; Chronic Lymphocytic Leukemia patients, number of patients/total, cutoff Oct. 19, 2015): 0/14
- Best Response PR ([1]; Chronic Lymphocytic Leukemia patients, number of patients/total, includes five patients with lymphocytosis at latest assessment): 13/14^1
- Best Response CR ([1]; DLBCL patients): (25%)
- Best Response PD ([1]; DLBCL patients): (75%)
- Best Response PR ([1]; DLBCL patients): (0%)
- Best Response SD ([1]; DLBCL patients): (0%)
- ORR (CR + PR) ([1]; DLBCL patients): (25%)
- Best Response CR [1, 9]: 1/4
- Best Response PD [1, 9]: 3/4
- Best Response PR [1, 9]: 0/4
- Best Response SD [1, 9]: 0/4
- ORR (CR + PR) [1, 9]: 1/4
- Best Response CR ([1]; Hairy Cell Leukemia patients): (0%)
- Best Response PD ([1]; Hairy Cell Leukemia patients): (0%)
- Best Response PR ([1]; Hairy Cell Leukemia patients): (100%)
- Best Response SD ([1]; Hairy Cell Leukemia patients): (0%)
- ORR (CR + PR) ([1]; Hairy Cell Leukemia patients): (100%)
- Best Response CR [1, 10]: 0/1
- Best Response PD [1, 10]: 0/1
- Best Response PR [1, 10]: 1/1
- Best Response SD [1, 10]: 0/1
- ORR (CR + PR) [1, 10]: 1/1
- Best Response CR ([1]; Indolent NHL patients): (0%)
- Best Response PD ([1]; Indolent NHL patients): (0%)
- Best Response PR ([1]; Indolent NHL patients): (0%)
- Best Response SD ([1]; Indolent NHL patients): (100%)
- ORR (CR + PR) ([1]; Indolent NHL patients): (0%)
- Best Response CR [1, 11]: 0/2
- Best Response PD [1, 11]: 0/2
- Best Response PR [1, 11]: 0/2
- Best Response SD [1, 11]: 2/2
- ORR (CR + PR) [1, 11]: 0/2
- Best Response CR ([1]; Mantle Cell Lymphoma patients): (20%)
- Best Response PD ([1]; Mantle Cell Lymphoma patients): (10%)
- Best Response PR ([1]; Mantle Cell Lymphoma patients): (60%)
- Best Response SD ([1]; Mantle Cell Lymphoma patients): (10%)
- ORR (CR + PR) ([1]; Mantle Cell Lymphoma patients): (80%)
- Best Response CR [1, 12]: 2/10
- Best Response PD [1, 12]: 1/10
- Best Response PR [1, 12]: 6/10
- Best Response SD [1, 12]: 1/10
- ORR (CR + PR) [1, 12]: 8/10
- Best Response CR [1, 13]: (0%)
- Best Response PD [1, 13]: (14%)
- Best Response SD [1, 13]: (0%)
- ORR (CR + PR) [1, 13]: (86%)
- Best Response PR ([1]; Waldenström's Macroglobulinemia patients, includes one patient with VGPR): (86%)
- Best Response CR [1, 14]: 0/7
- Best Response PD [1, 14]: 1/7
- Best Response SD [1, 14]: 0/7
- ORR (CR + PR) [1, 14]: 6/7
- Best Response PR ([1]; Waldenström's Macroglobulinemia patients, number of patients/total, includes one patient with VGPR): 6/7^2
- ≥Grade 3 AEs assessed as possibly drug-related ([1]; all self-limited neutropenia): 4
- patients who died during study ([1]; disease progression or its complications): 3
- drug-related serious adverse events (SAEs) ([1]; human, in vivo): no drug-related serious adverse events
- number of ≥Grade 3 AEs ([1]; human, in vivo): 19
- major hemorrhage ([1]; not considered drug-related): one case
- patients remaining on study treatment, free of progression ([1]; of the 39 patients): 31
- discontinuation for Compound 1-related toxicity [2]: no discontinuation
- events leading to treatment discontinuation [2]: Three events
- serious AEs assessed to be possibly related [2]: Five
- major response rate ([2]; 42 evaluable patients): 76%
- partial responses ([2]; 42 evaluable patients): 33%
- overall response rate (ORR) ([2]; 42 evaluable patients, median follow-up 12.3 months): 90%
- AE anemia ([2]; 48 patients): 15%
- AE constipation ([2]; 48 patients): 25%
- AE cough ([2]; 48 patients): 15%
- AE diarrhea ([2]; 48 patients): 19%
- AE epistaxis ([2]; 48 patients): 19%
- AE headache ([2]; 48 patients): 15%
- AE nausea ([2]; 48 patients): 17%
- AE neutropenia ([2]; 48 patients): 13%
- AE rash ([2]; 48 patients): 13%
- AE upper respiratory tract infection ([2]; 48 patients): 31%
- grade 3 or 4 anemia ([2]; 48 patients): 8%
- grade 3 or 4 diarrhea ([2]; 48 patients): 2%
- grade 3 or 4 headache ([2]; 48 patients): 2%
- grade 3 or 4 neutropenia ([2]; 48 patients): 8%
- AE petechiae/purpura/contusion ([2]; 48 patients, any attribution): 35%
- cases of atrial fibrillation ([2]; all grade 1 or 2): three cases
- serious hemorrhage ([2]; hemothorax): one case

SMILES: C=CC(=O)N1CCC([C@@H]2CCNc3c(C(N)=O)c(-c4ccc(Oc5ccccc5)cc4)nn32)CC1 [Crystalline Form A, (S)-7-(1-acryloylpiperidin-4-yl)-2-(4-phenoxyphenyl)-4,5,6,7-tetra-hydropyrazolo[1,5-a]pyrimidine-3-carboxamide]
- pIC50 [3]: 7.70
- crystal form change [4, 15]: no crystal form and optical purity changes; also recorded: no crystal form change
- optical purity change [4, 15]: no crystal form and optical purity changes
- chemical purity (% area) T0 ([4]; 25° C./60% RH): 99.2%
- chemical purity (% area) T12 ([4]; 25° C./60% RH, T12): 99.2%
- crystal form change [4, 16]: no crystal form and optical purity changes; also recorded: no crystal form change
- optical purity change [4, 16]: no crystal form and optical purity changes
- chemical purity (% area) T0 ([4]; 40° C./75% RH): 99.1%
- chemical purity (% area) T6 ([4]; 40° C./75% RH, T6): 99.4%
- crystal form change (XRPD) ([4]; 80° C. for two days): no crystal form change
